US8003312B2, “Multiplex cellular assays using detectable cell barcodes” (The Board of Trustees of the Leland Stanford Junior …, priority 2007, dated 2011)

What was measured:
Stat1 phosphorylation = test: Miniature drug screen by FCB phospho flow in U937 cells: IFN-γ-induced pStat1; assay type: cell-based, human; settings: added 30 min before stimulation with IFN-γ, IL-6 and GM-CSF
Description: (§1) FIG. 4. FCB of 36 samples increases throughput of phospho flow. (a) Efficient barcoding of 36 samples. U937 cells were left untreated or were stimulated with IFN-γ (10 ng/ml) for 10 min. Unstimulated and stimulated samples were added to a 96-well plate in an alternating pattern across each row and down each column and labeled with six concentrations of Pacific Blue-NHS (0, 0.15, 0.6, 2.5, 10 or 40 μg/ml) and/or Alexa 488-NHS (0, 0.07, 0.3, 1.3, 5 or 20 μg/ml). […] Reverse deconvolution (bottom panel) of all stimulated or unstimulated cells produced the expected checkerboard pattern. (b) Miniature drug screen and titration of inhibitors with FCB. U937 cells were treated with various drugs before stimulation with IFN-γ, IL-6 and GM-CSF (stimulation). WHI-P154 (WHI; 50 μM), PD98059 (PD; 20 μM), Jak inhibitor I (Jak-1; 5 μM), and wortmannin (Wort; 2 μM) were added to the cells 30 min before stimulation; samples were barcoded with Pacific Blue-NHS and simultaneously stained with pStat1 Alexa 488, pStat3 PE and pStat5 Alexa 647 (left three plots). Jak inhibitor I was added at 0.005, 0.05, 0.5 or 5 μM for 30 min before stimulation (middle). WHI-P154 was added at 0.1, 1, 10 or 100 μM for 30 min before stimulation (right). Non-drug-treated positive and negative controls are included within each FCB staining set, allowing for internal normalization of each staining cocktail. […]

Stat3 phosphorylation = test: Miniature drug screen by FCB phospho flow in U937 cells: IL-6-induced pStat3; assay type: cell-based, human; settings: added 30 min before stimulation with IFN-γ, IL-6 and GM-CSF
Description: as §1

Stat5 phosphorylation = test: Miniature drug screen by FCB phospho flow in U937 cells: GM-CSF-induced pStat5; assay type: cell-based, human; settings: added 30 min before stimulation with IFN-γ, IL-6 and GM-CSF
Description: as §1

Stat signaling = test: Miniature drug screen and inhibitor titration in U937 cells: Stat signaling overall (pStat1, pStat3, pStat5); assay type: cell-based, human; settings: for order of selectivity for the cytokine pathways: titration (Jak inhibitor I 0.005-5 μM, WHI-P154 0.1-100 μM), 30 min before stimulation
Description: FIG. 4. FCB of 36 samples increases throughput of phospho flow. (a) Efficient barcoding of 36 samples. U937 cells were left untreated or were stimulated with IFN-γ (10 ng/ml) for 10 min. Unstimulated and stimulated samples were added to a 96-well plate in an alternating pattern across each row and down each column and labeled with six concentrations of Pacific Blue-NHS (0, 0.15, 0.6, 2.5, 10 or 40 μg/ml) and/or Alexa 488-NHS (0, 0.07, 0.3, 1.3, 5 or 20 μg/ml). […] Reverse deconvolution (bottom panel) of all stimulated or unstimulated cells produced the expected checkerboard pattern. (b) Miniature drug screen and titration of inhibitors with FCB. U937 cells were treated with various drugs before stimulation with IFN-γ, IL-6 and GM-CSF (stimulation). WHI-P154 (WHI; 50 μM), PD98059 (PD; 20 μM), Jak inhibitor I (Jak-1; 5 μM), and wortmannin (Wort; 2 μM) were added to the cells 30 min before stimulation; samples were barcoded with Pacific Blue-NHS and simultaneously stained with pStat1 Alexa 488, pStat3 PE and pStat5 Alexa 647 (left three plots). Jak inhibitor I was added at 0.005, 0.05, 0.5 or 5 μM for 30 min before stimulation (middle). WHI-P154 was added at 0.1, 1, 10 or 100 μM for 30 min before stimulation (right). Non-drug-treated positive and negative controls are included within each FCB staining set, allowing for internal normalization of each staining cocktail.
We next applied the FCB platform to a drug screening profile, as a real-world example of how the technique could be used to enhance analysis throughput and reproducibility (FIG. 4b). Using Pacific Blue as the FCB reagent, we pretreated U937 cells with four small-molecule inhibitors: wortmannin (a PI-3 kinase inhibitor), Jak inhibitor I (an inhibitor of all Jak kinases), PD98059 (an MEK inhibitor) and WHI-P154 (a Jak3 inhibitor). We then stimulated the cells simultaneously with IFN-γ, IL-6 and granulocyte-monocyte colony-stimulating factor (GM-CSF) to induce pStat1, pStat3 and pStat5, respectively. […]

[1] = tested on: Stat1 and ERK phosphorylation; test: 96-well FCB drug screen in Jurkat cells: class of drug activity, pERK versus pStat1; assay type: cell-based, human; settings: 20 μM, 45 min before stimulation with anti-CD3, anti-CD28 and IFN-γ for 5 min
Description: (a) Layout of screening experiment. Jurkat cells were treated with 70 known small-molecule kinase or phosphatase inhibitors (20 μM), Jak inhibitor I (2 μM) or U0126 (20 μM) for 45 min before stimulation with 5 μg/ml anti-CD3 and anti-CD28 and 10 ng/ml IFN-γ for 5 min. […] After fixation, cells were barcoded with Alexa 700-NHS (0, 0.06, 0.25 or 1 μg/ml) to delineate the four quadrants of the 96-well plate. Each quadrant was subdivided into four rows labeled with Pacific Blue-NHS (0, 0.04, 0.2 or 1 μg/ml) and six columns labeled with Alexa 488-NHS (0, 0.02, 0.06, 0.18, 0.5 or 1.5 μg/ml). […] (c) Heat map representation of percent inhibition of ERK and Stat1 phosphorylation. […] Wells with black triangles were excluded from the analysis due to high fluorescence of the drug in the phospho-protein fluorescence channels. […] (d) Two-dimensional plots of pERK versus pStat1.
For this purpose, we designed an FCB labeling scheme using three dyes to barcode 96 samples (FIG. 5). With this FCB setup, we screened a small-molecule library of 70 previously characterized kinase and phosphatase inhibitors for their ability to inhibit T-cell receptor-mediated ERK phosphorylation and/or Stat1 phosphorylation induced by IFN-γ (FIG. 5a). After addition of inhibitors, stimulation, fixation and barcoding, we combined all 96 samples into one sample and stained it with phycoerythrin-labeled antibodies against phosphorylated ERK (pERK PE) and pStat1 Alexa 647 antibodies (for a total of five fluorophores: three FCB reagents and two antibodies).
We cultured U937 cells, a monocytic lymphoma cell line, and Jurkat T cells in RPMI-1640 containing 10% fetal bovine serum, 100 U/ml penicillin, 100 μg/ml streptomycin, 1 mM L-glutamine (RPMI-10), and stimulated cells at a density of 10^6 cells/ml. […] We stimulated cells in 96-well deep block plates (2-ml capacity) by adding the appropriate cytokine or stimulus directly to the culture medium without prior starvation. After a 10-15-min incubation, we fixed cells with 1.6% formaldehyde for 10 min and then proceeded with the FCB phospho flow protocol below. Where inhibitors were used, we added these compounds 30 min before stimulation.
We performed phospho flow as previously described (ref. 4) with slight modifications to include FCB labeling. After formaldehyde fixation, we resuspended samples in 100% 20-25° C. methanol (typically 500 μl per 10^6 cells) containing the indicated concentration of Alexa Fluor or Pacific Blue succinimidyl esters, with each sample receiving a different concentration of fluorescent dye.

[2] = tested on: Stat1 and ERK phosphorylation; test: Titration of four screening hits in Jurkat cells using six-sample FCB (pStat1, pERK); assay type: cell-based, human; settings: 30 min before IFN-γ (10 ng/ml) and anti-CD3/28 (5 μg/ml each)
Description: FIG. 8. Detailed titration of four hits from Jurkat drug screening experiment (FIG. 5). a) Four compounds: Bay11-7082, Indirubin-3-monoxime, PP2, and ZM449829 were added to Jurkat cells at different concentrations for 30 min prior to stimulation with IFN-γ (10 ng/ml) and anti-CD3/28 (5 μg/ml each). The cells were fixed and permeabilized, then stained with pStat1 Ax647 and pERK Ax488 antibodies. Percent inhibition of phosphorylation was plotted against concentration of drugs and fitted with a logistic regression curve to obtain IC50 values. Numbers in the top right of each plot are the IC50 value in μM units. b) Lysates were prepared from the same cells used for phospho flow and analyzed by western blot with pStat1 and pERK antibodies. Drugs were applied at 20 μM (same concentration as initial screen) for western blot analysis.
Because a few of these hits were unexpected, we performed titration experiments using six-sample FCB on four of the compounds to validate the results (FIG. 8).
We calculated fold change of phosphorylation upon stimulation by dividing median fluorescence intensity (MFI) of stimulated samples by the MFI of unstimulated samples: FC=MFIstim/MFIunstim. For heat map analysis, FC was converted to log2 values to enhance visualization and so that samples showing no change have a value of zero. To measure drug activity, we calculated percent inhibition as follows: Percent Inhibition=1−((MFItreated ? MFIunstim)/(MFIstim ? MFIunstim)), where “treated” denotes drug treated (and stimulated) samples, “stim” denotes control stimulated (non drug treated) samples, and “unstim” denotes control unstimulated (non drug treated) samples. We calculated Z′-factor from control stimulated and unstimulated samples by the following: Z′-factor=1 ? ((3[…]SDstim 3[…]SDunstim)/(meanstim ? meanunstim)), where “SD” denotes standard deviation of the mean, and “mean” denotes the mean of either stimulated or unstimulated MFI values. Z′-factor is an indication of the robustness and suitability of an assay for high throughput screening, with values from 0.5 to 1 indicating an excellent assay, 0 to 0.5 indicating a usable assay, and less than 0 indicating the assay has too much noise or inadequate dynamic range.

[3] = tested on: pStat1 in CD4+ and CD4− T cells; test: IFN-γ time course and dose titration in primary mouse splenocytes: pStat1 in T cells; assay type: cell-based
Description: (§2) FIG. 6. Use of FCB to label primary cell populations. […] (a) Mouse splenocytes were stimulated with different concentrations of IFN-γ across each row (0, 0.17, 0.5, 1.5, 4.5, 13, 40, 120, 370, 1,100, 3,300 or 10,000 pg/ml) for 0, 4, 8, 15, 30, 60, 120 or 180 min (each row representing a different time point). Cells were barcoded with three FCB markers (Alexa 700, Alexa 488 and Pacific Blue as in FIG. 5) during permeabilization, and stained with CD11b Cy5.5PerCP, B220 QD605, TCR PE, CD4 Cy7PE and pStat1 Alexa 647. Cell types were first gated based on surface markers to obtain CD11b-hi cells (neutrophils), B cells, CD4+ T cells and CD4-T cells. Each cell type was then deconvoluted to obtain the original 96-well plate layout. (b) Heat map representation showing the fold change in pStat1 levels on a log 2 scale across dose (from left to right) and time gradients (top to bottom). Yellow represents maximal induction, red indicates half-maximal induction, and black indicates no induction. Note that the scale for each cell type is different owing to different maximal induction of Stat1 phosphorylation.
(§3) Primary cells, and diseased cells from patients, are a limited resource and are not amenable to the majority of high-throughput screening systems. Therefore, we tested whether FCB could be applied to large-scale signaling profiling of heterogeneous populations of normal and/or diseased cells (refs. 13, 14). To this end, we stimulated primary mouse splenocytes with IFN-γ in a 96-well plate format, and asked whether different cell types show different kinetics and thresholds of responsiveness to IFN-γ. We performed a time course of stimulation across 11 different concentrations of the cytokine. Here, to discriminate cell types in addition to measuring phosphorylation levels, we stained the cells with pStat1 Alexa 647 and four surface marker antibodies: B220, TCR, CD4 and CD11b (for a total of eight colors: three FCB markers, four surface antibodies and one phospho antibody). We first gated cell types based on surface marker expression to obtain B cells, CD4+ T cells, CD4− T cells and CD11b-hi cells (neutrophils) 25 (FIG. 6a). We then deconvoluted each cell type to obtain the original plate layout.
We cultured U937 cells, a monocytic lymphoma cell line, and Jurkat T cells in RPMI-1640 containing 10% fetal bovine serum, 100 U/ml penicillin, 100 μg/ml streptomycin, 1 mM L-glutamine (RPMI-10), and stimulated cells at a density of 10^6 cells/ml. We obtained splenocytes from BALB/c mice by homogenization and resuspended them in RPMI-10 at 5 106 cells/ml. Splenocytes were rested for 2-3 h at 37° C. before stimulation13. We stimulated cells in 96-well deep block plates (2-ml capacity) by adding the appropriate cytokine or stimulus directly to the culture medium without prior starvation. […]

pStat1 in B cells = test: IFN-γ time course and dose titration in primary mouse splenocytes: pStat1 in B cells; assay type: cell-based
Description: as §2
as §3, with “We first gated cell types based on surface marker expression to obtain B cells, CD4+ T cells, CD4− T cells and CD11b-hi cells (neutrophils) 25 (FIG. 6a). We then deconvoluted each cell type to obtain the original plate layout.” left out

[4] = tested on: pStat1 in CD11b-hi cells (neutrophils); test: IFN-γ time course and dose titration in primary mouse splenocytes: pStat1 in neutrophils; assay type: cell-based
Description: as §2
as §3, with “We first gated cell types based on surface marker expression to obtain B cells, CD4+ T cells, CD4− T cells and CD11b-hi cells (neutrophils) 25 (FIG. 6a). We then deconvoluted each cell type to obtain the original plate layout.” left out

Molecule: Jak inhibitor I
- inhibition of Stat1 phosphorylation (Stat1 phosphorylation; 5 μM): completely abrogating
- inhibition of Stat3 phosphorylation (Stat3 phosphorylation; 5 μM): completely abrogating
- inhibition of Stat5 phosphorylation (Stat5 phosphorylation; 5 μM): completely abrogating
- order of selectivity for the cytokine pathways (Stat signaling): IL-6-Stat3>IFN-γ-Stat1>GM-CSF-Stat5

Molecule: N#CC(=C(/N)Sc1ccccc1N)/C(C#N)=C(\N)Sc1ccccc1N [U0126]
- class of drug activity (selectivity, Stat1 versus ERK phosphorylation) [1]: selectively inhibited ERK phosphorylation

Molecule: CC(C)(C)n1nc(-c2ccc(Cl)cc2)c2c(N)ncnc21 [PP2]
- class of drug activity (selectivity, Stat1 versus ERK phosphorylation) [1]: selectively inhibited ERK phosphorylation
- selectivity for ERK (over Stat1) phosphorylation [2]: extremely selective

Molecule: O=C1Nc2ccccc2/C1=C1/Nc2ccccc2/C1=N\O [indirubin-3′-monooxime]
- class of drug activity (selectivity, Stat1 versus ERK phosphorylation) [1]: selectivity for inhibiting Stat1 phosphorylation
- selectivity for Stat1 (over ERK) phosphorylation [2]: extremely selective

Molecule: CCCCCCCCCCCCC/C=C/[C@@H](O)[C@@H](N)CO [sphingosine]
- class of drug activity (selectivity, Stat1 versus ERK phosphorylation) [1]: selectively inhibited ERK phosphorylation

Molecule: C=CC(=O)c1ccc2ccccc2c1 [ZM-449829]
- class of drug activity (selectivity, Stat1 versus ERK phosphorylation) [1]: inhibited both Stat1 and ERK phosphorylation potently
- selectivity between ERK and Stat1 phosphorylation [2]: little selectivity

Molecule: IFN-γ: mouse IFN-γ from BD Pharmingen, cytokine used to stimulate primary mouse splenocytes
- half-maximal response concentration (EC50), pStat1 induction ([3]; CD4+ T cells of mouse splenocytes): 50 pg/ml
- maximum induction of pStat1 ([3]; CD4+/CD4− T cells of mouse splenocytes): 19-23 fold
- half-maximal response concentration (EC50), pStat1 induction ([3]; CD4− T cells of mouse splenocytes): 50 pg/ml
- time of maximal pStat1 induction ([3]; T cells of mouse splenocytes): 30 min
- maximum induction of pStat1 (pStat1 in B cells): 19-23 fold
- time of maximal pStat1 induction (pStat1 in B cells): 8-30 min
- EC50, pStat1 induction (pStat1 in B cells; B cells of mouse splenocytes): 220 pg/ml
- maximum induction of pStat1 [4]: 4.5 fold
- time of maximal pStat1 induction [4]: 30-60 min
- EC50, pStat1 induction ([4]; neutrophils (CD11b-hi cells) of mouse splenocytes): 400 pg/ml

Molecule: COc1cc2ncnc(Nc3ccc(O)c(Br)c3)c2cc1OC [WHI-P154]
- inhibition of Stat1 phosphorylation (Stat1 phosphorylation; 50 μM): 80%
- inhibition of Stat3 phosphorylation (Stat3 phosphorylation; 50 μM): 100%
- inhibition of Stat5 phosphorylation (Stat5 phosphorylation; 50 μM): 40%
- order of selectivity for the cytokine pathways (Stat signaling): IL-6-Stat3>IFN-γ-Stat1>GM-CSF-Stat5

Molecule: COc1cccc(-c2cc(=O)c3ccccc3o2)c1N [PD98059]
- effects on Stat signaling (Stat signaling; 20 μM, added 30 min before stimulation with IFN-γ, IL-6 and GM-CSF): no or minor effects
